# From patent publication US5439930A, “Biologically active n-acylprolydipeptides having antiamnestic, antihypoxic and anorexigenic effects” (Russian-American Institute for New Drug Development, priority 1992, dated 1995)
# Where a SMILES comes first, the peptide text is derived from it. The star is where a group is joined. PhAc = O=C(Cc1ccccc1)*
# Legend:
# [1] = test system: memory decline evoked by maximal electroshock (MES) in randomly bred male albino rats; test: Passive avoidance step-through, amnesia by maximal electroshock (MES); assay type: in vivo
# Experimental: (§1) Compounds according to the present invention, including the compounds described in Examples 1-11, were checked for their ability to prevent memory decline evoked by maximal electroshock (MES) or scopolamine in the passive avoidance step-through paradigm (equipment of Laffaette Co., USA). The experiments described herein (Examples 12, 13, 15, and 19) were carried out using randomly bred male albino rats of a weight of approximately 180-220 g. […] Amnesia was produced by transcorneal maximal electroshock immediately after learning or scopolamine (1 mg/kg, subcutaneously) administration 30 min. before learning. The retention was tested 24 hours later by the measurement of latency of the entering of the dark compartment.
# (§2) The degree of antiamnestic activity was estimated according to Buttler's modified formula: [formula]
# (§3) The higher the magnitude of this indicator the more is the antiamnestic activity.
# [2] = test system: memory decline evoked by scopolamine in randomly bred male albino rats; test: Passive avoidance step-through, amnesia by scopolamine; assay type: in vivo; details: 0.1 mg/kg 15 min before learning
# Experimental: as §1, §2, §3
# lobectomized rats = test: Passive avoidance after frontal lobectomy; assay type: in vivo; details: 9th day, 0.1 mg/kg for 9 days
# Experimental: The impairment of learning and memory was achieved also by frontal lobectomy, which was performed after passive avoidance or active avoidance learning. Compound I (0.1 mg/kg) was administered beginning from the first post-operational day and lasting for 9 days. The testing was performed at 4th and 9th days. […] The frontal lobectomy has as a consequence the decrease of the latency of the entering of the dark compartment; Compound I restored the passive avoidance reaction (Table 8).
# [3] = test system: rat's offspring damaged by prenatal alcoholization; test: Active avoidance learning of offspring after prenatal alcoholization; assay type: in vivo, rats
# Experimental: The cognitive impairment in the rat's offspring was provoked by prenatal alcoholization or prenatal hypoxia. Prenatal alcoholization was achieved by peroral administration of 5 g/kg/day (25% solution) ethanol to pregnant female rats during whole pregnancy. To achieve prenatal hypoxia the rats on the 15th day of pregnancy were placed into hypobaric barometric chamber (the "elevating" up 8500 m altitude; exposition for 2 hours).
# The treatment of the offspring was performed from 8th day to 20th day. Compound I was administered in the dose of 0.1 mg/kg/day subcutaneously. The testing was performed on two-month old rats.
# It has been established that both kinds of damage (alcoholization, hypoxia) caused learning disorders in active avoidance test. Early postnatal administration of Compound I restored learning activity (Table 9).
# 24-month Wistar rats = test: Locomotor activity and habituation in aged rats (Optovarimex); assay type: in vivo
# Experimental: The influence of Compound I on age-related mental decline was studied in experiments on 24-month Wistar rats. The substance was administered chronically in the dose of 0.1 mg/kg/day during 24 days, intraperitoneally before the testing and 14 days during testing.
# Registration of the locomotor activity in the Optovarimex multichannel analyzer has shown that Compound I increased the initial horizontal activity being administered chronically. […] This test is suitable for the study of nootropics. In the control group the coefficient of the habituation was 0.29.
# [4] = Body weight and food consumption; assay type: in vivo, rats
# Experimental: The influence of Compound I on body weight and food consumption was studied in the experiments on the outbred rats. The substance, administered during 3 weeks in dose of 0.1 mg/kg/day intraperitoneally slowed the dynamics of weight increase in comparison to control: the increase of the weight (in %% to the initial one) was 12% in the treated group and 24% in the control group.
# The amount of the consumed chow checked between 19th and 21st days was less for treated animals (39.5 g/day/rat) than for control ones (68.6 g/day/rat).
# [5] = test system: phenazepam withdrawn male albino rats; test: Conflict situation test during phenazepam withdrawal; assay type: in vivo; details: 0.5 mg/kg i.p. 15 minutes prior to testing; 24 hours after phenazepam withdrawal
# Experimental: (§4) The influence of Compound I on withdrawal syndrome caused by the interruption of chronic administration of benzodiazepine tranquilizer phenazepam (T. A. Voronina et al., In Fenazepam; A. V. Bogatsky, Ed.; Naukova dumka Publishers: Kiev, 1982; pp. 67-169) was studied in experiments on male albino rats weighing 190-200 g at the beginning and 300-350 g at the end of the experiment.
# (§5) Phenazepam (2 mg/kg intraperitoneally) or saline (control group of rats) were given once daily for 57 days. The withdrawal syndrome occurred 24-72 hours after the last injection. The withdrawal syndrome in rats consisted in "anxiogenic-like" state aggressiveness and accelerated development of kindled seizures caused by pentylentetrazol. Compound I was administered to the withdrawn rats in doses of 0.5 mg/kg intraperitoneally 15 minutes prior to testing.
# The conflict situation test was used to reveal the "anxiety" of rats (J. R. Vogel et al., Psychopharmacologia, 21, 1-7 (1971)). This experiment involved previous training of water deprivated rats to drink water from a trough. Next day electrical stimulation was given by a 0.5 mA electric current through the trough. A conflict situation was created by clashing of the two different reflexes (drinking and self-defense).
# This behavior in the conflict situation test can be considered as "anxiogenic-like" one. […]
# [6] = test system: phenazepam withdrawn male albino rats; test: Pentylenetetrazol kindling seizures during phenazepam withdrawal; assay type: in vivo
# Experimental: as §4, §5
# The seizure reactions of rats were studied using chemical kindling (C.R. Mason et al., Epilepsia, 13, 663-674 (1972); R. M. Post et al., Handbook of Biological Psychiatry, Part IV, No. 7, Marcel-Dekker (1981) pp. 609-651) produced by small doses of pentylene-tetrazol (35 mg/kg, intraperitoneally) administrated 24, 48 and 72 h after phenazepam withdrawal. The degree of seizures was evaluated by 4 points: tremor (1 point); jerk (2 point); clonic seizures (3 points); tonic seizures and death (4 points).
# Our experiments pointed out that the pentylenetetrazol seizures were more pronounced in phenazepam withdrawn rats than in the control one. Compound I diminished the degree of kindling provoked by pentylenetetrazol (Table 14).
smiles,measurement,setting,value
"CCOC(=O)CNC(=O)[C@@H]1CCCN1C(=O)Cc1ccccc1 [Compound I, N-phenacetyl-L-prolylglycine ethyl ester] (PhAc-Pro-Gly-OEt)",Latency (sec.) Amnesia + subst.,"[1]; 0.1 mg/kg i.p. 15 min before training, MES after learning, retention 24 h later",25 s
same,"AA % (antiamnestic activity, Butler's modified formula)","[1]; 0.1 mg/kg i.p. 15 min before training, MES amnesia",36%
same,Antiamnestic activity (Aa),"[1]; 0.1 mg/kg per os, MES amnesia",19%
same,Antiamnestic activity (Aa),"[1]; 0.3 mg/kg per os, MES amnesia",19%
same,Antiamnestic activity (Aa),"[1]; 0.4 mg/kg per os, MES amnesia",23%
same,Antiamnestic activity (Aa),"[1]; 0.5 mg/kg per os, MES amnesia",43%
same,Antiamnestic activity (Aa),"[1]; 0.7 mg/kg per os, MES amnesia",52%
same,Antiamnestic activity (Aa),"[1]; 0.9 mg/kg per os, MES amnesia",36%
same,Antiamnestic activity (Aa),"[1]; 1.0 mg/kg per os, MES amnesia",10%
same,Antiamnestic activity (Aa),"[1]; 1.2 mg/kg per os, MES amnesia",16%
same,Antiamnestic activity (Aa),"[1]; 1.5 mg/kg per os, MES amnesia",10%
same,Aa (antiamnestic activity),[2]; scopolamine 1 mg/kg s.c.,55.5
same,Latency (sec.) Scopolamine + substance,[2]; scopolamine 1 mg/kg s.c. 30 min before trial,64.1 s
same,"Passive avoidance test (latency, sec)",lobectomized rats,141.2 s
same,Rats with reflex of active avoidance,"[3]; day 1 of learning, 0.1 mg/kg/day s.c. from 8th to 20th day",0%
same,Rats with reflex of active avoidance,[3]; day 1 of retention,78%
same,Rats with reflex of active avoidance,[3]; day 2 of learning,0%
same,Rats with reflex of active avoidance,[3]; day 2 of retention,89%
same,Rats with reflex of active avoidance,[3]; day 3 of learning,55%
same,Rats with reflex of active avoidance,[3]; day 4 of learning,82%
same,Coefficient of habituation (ratio - 5th min/1st min),24-month Wistar rats; 0.1 mg/kg/day i.p. chronically,0.03
same,Locomotor activity (counts),"24-month Wistar rats; 1st min. of registration, 0.1 mg/kg/day i.p. chronically",422 counts
same,Locomotor activity (counts),24-month Wistar rats; 5th min. of registration,13 counts
same,Increase of the weight (in %% to the initial one),[4]; 0.1 mg/kg/day i.p. during 3 weeks,12%
same,Amount of the consumed chow,"[4]; between 19th and 21st days, 0.1 mg/kg/day i.p.",39.5 g/day/rat
same,The amount of the Punishment Response,[5],48.40 ± 12.39
same,Seizure Reactions in Points (M ± m),"[6]; 24 h after phenazepam withdrawal, pentylenetetrazol 35 mg/kg i.p., 0.5 mg/kg i.p.",0.25 ± 0.12 points
same,Seizure Reactions in Points (M ± m),[6]; 48 h after phenazepam withdrawal,0.87 ± 0.1 points
same,Seizure Reactions in Points (M ± m),[6]; 72 h after phenazepam withdrawal,0.5 ± 0.24 points
